Experimental data as given in patent US10294248B2, “Beta-lactamase inhibitors” (VenatoRx Pharmaceuticals, Inc., priority 2013, dated 2019).

Columns and labels:
[1] = biological target: T1, SHV-5 β-lactamase (Class A ESBL) (Klebsiella pneumoniae, UniProt P0A3M1); assay: β-Lactamase inhibition, SHV-5; assay type: biochemical
T1 construct: made in house; host or cells: E. coli BL21(DE3)
In short: (§1)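 Native untagged β-lactamases were expressed in E. coli BL21(DE3), then purified by cation exchange and gel filtration. Enzyme was preincubated with inhibitor for 15 min at 37 °C before substrate was added. Imipenem (A300) served KPC-2 and cefotaxime (A260) served SHV-5. IC50 was taken from initial hydrolysis rates relative to no-inhibitor controls.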

[2] = tested on: S. aureus MSSA-7 producing penicillinase PC-1; assay: Broth microdilution MIC, S. aureus MSSA-7 PC-1; assay type: cell-based; settings: fixed 4 μg/mL piperacillin; CAMHB, 16-20 hours at 37° C.
In short: (§2)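 Potentiation MIC by CLSI broth microdilution in cation-adjusted Mueller Hinton broth. Test compound was 2-fold serially diluted from 32 to 0.25 μg/ml with a β-lactam held at a static 4 μg/ml. After 16-20 h at 37° C, MIC was read visually.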

[3] = tested on: K. pneumoniae A-1797 expressing KPC-2 and VIM-4; assay: Broth microdilution MIC, K. pneumoniae A-1797 KPC-2/VIM-4; assay type: cell-based; settings: fixed 4 μg/mL meropenem; CAMHB, 16-20 hours at 37° C.
In short: as §2

[4] = tested on: K. pneumoniae 156319 expressing KPC-3; assay: Broth microdilution MIC, K. pneumoniae 156319 KPC-3; assay type: cell-based; settings: fixed 4 μg/mL meropenem; CAMHB, 16-20 hours at 37° C.
In short: as §2

[5] = biological target: T2, VIM-2 metallo-β-lactamase (Class B) (Pseudomonas aeruginosa, UniProt Q9K2N0); assay: β-Lactamase inhibition, VIM-2; assay type: biochemical; settings: nitrocefin 100 μM, 486 nm; 15 min preincubation at 37° C., PBS pH 7.4
T2 construct: made in house; host or cells: E. coli BL21(DE3)
In short: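 Purified VIM-2 (Q sepharose anion exchange, Hepes pH 7.5, >90% pure) was preincubated with inhibitor at 37 °C for 15 min, then nitrocefin added at 100 μM final. Absorbance at 486 nm was followed for 10 min; IC50 was taken from maximum hydrolysis rates relative to inhibitor-free controls.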

[6] = tested on: E. coli ESBL4 expressing CTX-M-15; assay: Broth microdilution MIC, E. coli ESBL4 CTX-M-15; assay type: cell-based; settings: fixed 4 μg/mL ceftazidime; CAMHB, 16-20 hours at 37° C.
In short: as §2

[7] = tested on: E. cloacae 144200 expressing Class C P99 AmpC; assay: Broth microdilution MIC, E. cloacae 144200 p99 AmpC; assay type: cell-based; settings: fixed 4 μg/mL ceftazidime; CAMHB, 16-20 hours at 37° C.
In short: as §2

[8] = biological target: T3, p99 AmpC β-lactamase (Class C) (Enterobacter cloacae, UniProt P05364); assay: β-Lactamase inhibition, p99 AmpC; assay type: biochemical
T3 construct: made in house; host or cells: E. coli BL21(DE3)

[9] = tested on: P. aeruginosa Ps296 expressing VIM-2; assay: Broth microdilution MIC, P. aeruginosa Ps296 VIM-2; assay type: cell-based; settings: fixed 4 μg/mL meropenem; CAMHB, 16-20 hours at 37° C.
In short: as §2

[10] = biological target: T4, KPC-2 β-lactamase (Class A carbapenemase) (Klebsiella pneumoniae, UniProt Q9F663); assay: β-Lactamase inhibition, KPC-2; assay type: biochemical; settings: imipenem substrate, 300 nm; 15 min preincubation at 37° C., PBS pH 7.4
T4 construct: made in house; host or cells: E. coli BL21(DE3)
In short: as §1

[11] = biological target: T5, OXA-1 β-lactamase (Class D oxacillinase) (Escherichia coli, UniProt P13661); assay: β-Lactamase inhibition, OXA-1; assay type: biochemical; settings: nitrocefin 100 μM, 486 nm; 15 min preincubation at 37° C., PBS pH 7.4
T5 construct: made in house; host or cells: E. coli BL21(DE3)
In short: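 Untagged enzyme from E. coli BL21(DE3), purified by Capto S then Superdex 75; 15 min 37 °C preincubation with inhibitor; KPC-2 read with imipenem at 300 nm, SHV-5 with cefotaxime at 260 nm, OXA-1 with nitrocefin 100 μM final at 486 nm; 10 min kinetic read; IC50 vs uninhibited wells.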

T5 sequence (P13661 26-276): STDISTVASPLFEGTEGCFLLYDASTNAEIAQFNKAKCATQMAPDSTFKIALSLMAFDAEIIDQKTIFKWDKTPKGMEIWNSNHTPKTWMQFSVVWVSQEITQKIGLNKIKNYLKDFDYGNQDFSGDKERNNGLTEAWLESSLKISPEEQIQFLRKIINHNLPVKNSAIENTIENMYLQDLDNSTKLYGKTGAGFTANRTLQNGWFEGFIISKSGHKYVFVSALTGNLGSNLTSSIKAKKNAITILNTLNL
T1 sequence (P0A3M1 22-286): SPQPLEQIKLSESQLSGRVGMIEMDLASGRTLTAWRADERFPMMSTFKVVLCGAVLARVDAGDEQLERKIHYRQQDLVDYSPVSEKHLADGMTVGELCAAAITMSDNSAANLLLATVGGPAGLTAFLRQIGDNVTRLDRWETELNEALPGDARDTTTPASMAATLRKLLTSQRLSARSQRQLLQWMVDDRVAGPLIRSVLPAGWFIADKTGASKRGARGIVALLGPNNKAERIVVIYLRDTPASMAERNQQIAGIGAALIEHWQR
T3 sequence (P05364 21-381): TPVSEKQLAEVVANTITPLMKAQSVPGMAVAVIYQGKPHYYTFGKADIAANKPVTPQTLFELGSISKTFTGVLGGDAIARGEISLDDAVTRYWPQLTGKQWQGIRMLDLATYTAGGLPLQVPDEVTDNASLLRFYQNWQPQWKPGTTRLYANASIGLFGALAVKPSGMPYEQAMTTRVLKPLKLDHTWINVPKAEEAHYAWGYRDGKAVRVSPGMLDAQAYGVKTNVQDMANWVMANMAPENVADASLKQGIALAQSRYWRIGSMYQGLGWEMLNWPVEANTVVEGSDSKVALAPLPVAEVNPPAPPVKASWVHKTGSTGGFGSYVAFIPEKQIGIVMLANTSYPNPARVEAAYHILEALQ
T4 sequence (Q9F663 25-293, looked up): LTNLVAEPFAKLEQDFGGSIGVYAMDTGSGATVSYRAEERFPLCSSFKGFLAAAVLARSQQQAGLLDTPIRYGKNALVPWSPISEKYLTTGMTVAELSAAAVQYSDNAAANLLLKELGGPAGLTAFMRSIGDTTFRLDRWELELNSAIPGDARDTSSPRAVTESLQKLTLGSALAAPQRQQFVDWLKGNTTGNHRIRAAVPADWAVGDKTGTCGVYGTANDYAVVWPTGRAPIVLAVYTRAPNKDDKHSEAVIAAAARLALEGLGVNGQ

Structure (SMILES)	IC50 [1] [nM]	MIC of example compound in presence of fixed β-lactam: Fixed Pip, S. aureus MSSA-7 PC-1 [2]	MIC of example compound in presence of fixed β-lactam: Fixed Mero, K. P. A-1797 KPC-2 VIM-4 [3]	MIC of example compound in presence of fixed β-lactam: Fixed Mero, K. P. 156319 KPC-3 [4]	IC50 [5] [nM]	MIC of example compound in presence of fixed β-lactam: Fixed CAZ, E. coli ESBL4 CTX-M-15 [6]	MIC of example compound in presence of fixed β-lactam: Fixed CAZ, E. cl. 144200 p99 AmpC [7]	IC50 [8] [nM]	MIC of example compound in presence of fixed β-lactam: Fixed Mero, P. aerug. Ps296 VIM-2 [9]	IC50 [10] [nM]	IC50 [11] [nM]
CN(C)c1ccc(NC(=O)N2CC(C(=O)N[C@H]3Cc4cccc(C(=O)O)c4OB3O)C2)cc1 [Example 47, (R)-3-(1-(4-(dimethylamino)phenylcarbamoyl)azetidine-3-carboxamido)-2-hydroxy-3,4-dihydro-2H-benzo[e][1,2]oxaborinine-8-carboxylic acid]	< 100	B (the MIC in the presence of between 8 and 32 μg/mL of a β-lactamase inhibitor)	B (the MIC in the presence of between 8 and 32 μg/mL of a β-lactamase inhibitor)	C (the MIC in the presence of <4 μg/mL of a β-lactamase inhibitor)	100 to 1000	C (the MIC in the presence of <4 μg/mL of a β-lactamase inhibitor)	C (the MIC in the presence of <4 μg/mL of a β-lactamase inhibitor)	< 100	C (the MIC in the presence of <4 μg/mL of a β-lactamase inhibitor)	< 100	100 to 1000
O=C(O)c1cccc2c1OB(O)[C@@H](NC(=O)C1CN(c3ncccn3)C1)C2 [Example 48, (R)-2-hydroxy-3-(1-(pyrimidin-2-yl)azetidine-3-carboxamido)-3,4-dihydro-2H-benzo[e][1,2]oxaborinine-8-carboxylic acid]	< 100	C (the MIC in the presence of <4 μg/mL of a β-lactamase inhibitor)	B (the MIC in the presence of between 8 and 32 μg/mL of a β-lactamase inhibitor)	C (the MIC in the presence of <4 μg/mL of a β-lactamase inhibitor)	1000 to 10000	C (the MIC in the presence of <4 μg/mL of a β-lactamase inhibitor)	C (the MIC in the presence of <4 μg/mL of a β-lactamase inhibitor)	< 100	C (the MIC in the presence of <4 μg/mL of a β-lactamase inhibitor)	< 100	< 100
NC1(C(=O)N[C@H]2Cc3cccc(C(=O)O)c3OB2O)CCNCC1 [Example 49, 3-[(4-Amino-piperidine-4-carbonyl)-amino]-2-hydroxy-3,4-dihydro-2H-benzo[e][1,2]oxaborinine-8-carboxylic acid]	< 100	C (the MIC in the presence of <4 μg/mL of a β-lactamase inhibitor)	A (an MIC of the fixed β-lactam antibiotic in the presence of >32 μg/mL of a β-lactamase inhibitor)	C (the MIC in the presence of <4 μg/mL of a β-lactamase inhibitor)	1000 to 10000	C (the MIC in the presence of <4 μg/mL of a β-lactamase inhibitor)	C (the MIC in the presence of <4 μg/mL of a β-lactamase inhibitor)	< 100	B (the MIC in the presence of between 8 and 32 μg/mL of a β-lactamase inhibitor)	< 100	< 100
O=C(O)c1cccc2c1OB(O)[C@@H](NC(=O)C1CNCCN1)C2 (stereo partly drawn) [Example 50, 2-Hydroxy-3-[(piperazine-2-carbonyl)-amino]-3,4-dihydro-2H-benzo[e][1,2]oxaborinine-8-carboxylic acid]	< 100	C (the MIC in the presence of <4 μg/mL of a β-lactamase inhibitor)	A (an MIC of the fixed β-lactam antibiotic in the presence of >32 μg/mL of a β-lactamase inhibitor)	C (the MIC in the presence of <4 μg/mL of a β-lactamase inhibitor)	1000 to 10000	C (the MIC in the presence of <4 μg/mL of a β-lactamase inhibitor)	C (the MIC in the presence of <4 μg/mL of a β-lactamase inhibitor)	< 100	C (the MIC in the presence of <4 μg/mL of a β-lactamase inhibitor)	< 100	< 100
CN1CCC(C(=O)N[C@H]2Cc3cccc(C(=O)O)c3OB2O)(N(C)C)CC1 [Example 51, 3-[(4-Dimethylamino-1-methyl-piperidine-4-carbonyl)-amino]-2-hydroxy-3,4-dihydro-2H-benzo[e][1,2]oxaborinine-8-carboxylic acid]	1000 to 10000	C (the MIC in the presence of <4 μg/mL of a β-lactamase inhibitor)	A (an MIC of the fixed β-lactam antibiotic in the presence of >32 μg/mL of a β-lactamase inhibitor)	C (the MIC in the presence of <4 μg/mL of a β-lactamase inhibitor)	1000 to 10000	C (the MIC in the presence of <4 μg/mL of a β-lactamase inhibitor)	C (the MIC in the presence of <4 μg/mL of a β-lactamase inhibitor)	< 100	C (the MIC in the presence of <4 μg/mL of a β-lactamase inhibitor)	< 100	100 to 1000
NCCN1CCC(NCC(=O)N[C@H]2Cc3cccc(C(=O)O)c3OB2O)CC1 [Example 52, 3-{2-[1-(2-Amino-ethyl)-piperidin-4-ylamino]-acetylamino}-2-hydroxy-3,4-dihydro-2H-benzo[e][1,2]oxaborinine-8-carboxylic acid]	< 100	C (the MIC in the presence of <4 μg/mL of a β-lactamase inhibitor)	B (the MIC in the presence of between 8 and 32 μg/mL of a β-lactamase inhibitor)	C (the MIC in the presence of <4 μg/mL of a β-lactamase inhibitor)	1000 to 10000	C (the MIC in the presence of <4 μg/mL of a β-lactamase inhibitor)	C (the MIC in the presence of <4 μg/mL of a β-lactamase inhibitor)	< 100	B (the MIC in the presence of between 8 and 32 μg/mL of a β-lactamase inhibitor)	< 100	< 100
